# Measurements as given in patent publication US20080200403A1, “9A-Carbamoyl and Thiocarbamoyl Azalides with Anti-Inflammatory Activity” (GLAXOSMITHKLINE, priority 2005, published 2008).
# Read-outs that look alike come from different tables or passages of the source.
# Columns and labels:
# TNF-α = assay: Inhibition of TNF-α production by stimulated human peripheral blood leukocytes in vitro; type: cell-based; details: PBL
# Method: (§1) Test substances used in in vitro experiments were dissolved in dimethyl sulfoxide (DMSO) (Kemika, Croatia) at concentrations of 50 mM and 10 mM, and were further diluted to final concentrations of 50 μM and 10 μM in 1 mL Dulbecco's modified Eagle medium (DMEM) supplemented with 1% heat inactivated fetal bovine serum (FBS), 1% L-glutamine, 50 U/ml penicillin, 50 μg/ml streptomycin and 2.5 μg/mL Fungizone (amphotericin B). Media and all media supplements were purchased from Gibco, Australia, except the FBS was purchased from Sigma, USA.
# (§2) Peripheral blood leukocytes (PBL) were obtained from venous blood of healthy volunteers by sedimentation on 2% dextran T-500 (Amersham Biosciences, USA) and subsequent centrifugations of leukocyte rich plasma.
# (§3) Peripheral blood leukocytes (PBL), isolated as described above, were seeded in a 48-well plate at a concentration of 3 to 5×10^6 cell per well in culture medium consisting of RPMI 1640 medium (Institute of Immunology, Croatia) supplemented with 10% heat-inactivated fetal calf serum (FCS, Biowhittaker, USA), 100 U/ml penicillin (Gibco, Australia), 100 μg/ml streptomycin (Gibco, Australia) and 2 mM L-glutamine (Gibco, Australia), and preincubated with the test compounds for 2 h at 37° C., in an atmosphere of 5% CO2, and 90% humidity. Then, stimuli (Sigma, USA) were added to a final concentration of 2 μg/mL lipopolysaccharide (LPS), 1 μg/mL phorbol 12-myristate 13-acetate (PMA) or 120 μg/mL zymosan. Samples were incubated overnight under conditions described above. At the end of incubation, the supernatants were transferred to eppendorf tubes and centrifuged for 10 min at 1500×g. Concentrations of human TNF-α, IL-1β, IL-6 and IL-8 were determined in cell supernatants by sandwich ELISA, using capture and detection antibodies (R&D Systems, Minneapolis, Minn.) according to the manufacturer's recommendations.
# (§4) Inhibition (as percentage) was calculated using the following formula: % inhibition=(1−concentration of cytokines in sample/concentration of cytokines in positive control)×100. The positive control refers to stimulated samples, not treated with substances.
# IL-1α = assay: Inhibition of IL-1 production by stimulated human peripheral blood leukocytes in vitro; type: cell-based; details: PBL
# IL-8 = assay: Inhibition of IL-8 production by stimulated human peripheral blood leukocytes in vitro; type: cell-based; details: PBL
# Method: as §1, §2, §3, §4
# human granulocytes = assay: Oxidative burst inhibition assay on granulocytes (luminol); type: cell-based; details: for inhibition at 12.5 µM / inhibition at 50 µM: Homo sapiens
# Method: (§5) Granulocytes were obtained from heparinized whole blood using density gradient centrifugation. Erythrocytes were sedimented on 3% dextran T-500 (Amersham Pharmacia Biotech AB, Uppsala, Sweden). Leukocytes were centrifuged on Ficoll (Amersham Pharmacia Biotech AB, Uppsala, Sweden) for 35 min at 600 g at 20° C. The pellet of granulocytes was cleared from remaining erythrocytes by a brief hypotonic lysis.
# The effect of compounds on oxidative burst was investigated in vitro with oxidative burst assay in human granulocytes, isolated as described above. Assay was done in 96 well plate. Blood was obtained from healthy volunteers (Transfusion Center, Croatia) and human granulocytes were isolated by dextran sedimentation and ficoll extraction method, as described above. In each well 50000 isolated granulocytes were suspended in 100 μL of DMEM. Final concentrations of the tested compounds were 50 and 12.5 μM. Than, 50 μL of luminol (c=0.25 mg/mL) was added. Luminol as a detector of oxidative burst react with superoxide and light is produced as one of the reaction products. Subsequently, 50 μL of stimuli, phorbol-12-myristate acetate (PMA) (c=33 ng/mL) or Zymosan (c=120 μg/mL), were added.
# IL-6 = assay: Inhibition of IL-6 production by stimulated human peripheral blood leukocytes in vitro; type: cell-based; details: PBL
# Method: as §1, §2, §3, §4
# [1] = test system: human peripheral blood mononuclear cells (PBMC); assay: Human T-cell proliferation in vitro (3H-thymidine incorporation); type: cell-based
# Method: Influence of substances at two different concentrations (50 μM and 10 μM) on cell proliferation of human peripheral blood mononuclear cells (PBMC) was assessed.
# Heparinized peripheral blood was obtained from healthy donors, and PBMC were isolated by Histopaque 1077 (Sigma, USA) density centrifugation at 400×g for 30 minutes. 5×10^4 cells/well were cultured for 3 days in the RPMI medium as described above, in the presence (positive control) or absence (negative control) of stimulators [PHA (2.5 μg/mL) (Sigma, USA), or both PMA (10 ng/mL) (Sigma, USA) and ionomycin (500 ng/mL) (Calbiochem, USA)], and in the presence of the test compounds, at 37° C. in an atmosphere of 5% CO2 and 90% humidity. The cells were pulsed with 1 μCi of ^3H-thymidine (Amersham, USA) per well during the last 18 h of the culture, and were harvested on the 96-well filter (Packard Bioscience, USA) using a multiple cell harvester (Packard, USA). The incorporation of ^3H-thymidine in activated cells were measured using TopCount NXT (Packard, USA).
# Inhibition (as percentage) was calculated using the following formula: % inhibition=(1−(^3H)thymidine incorporation expressed in counts per minute (cpm) in sample/(^3H)thymidine incorporation expressed in cpm in positive control)×100
# where positive control refers to stimulated samples, not treated with substances.
# granulocytes = assay: Inhibition of degranulation of granulocytes (elastase release); type: cell-based, human; details: Homo sapiens, compound 50 μM, read-out: Percentage of inhibition of degranulation of granulocytes
# Method: as §5
# 1×10^6 granulocytes, isolated as described above, were resuspended in RPMI-1640 medium (Institute of Immunology, Croatia), and were incubated with 10 or 50 μM of test compound together with cytochalasine B (5 μg/mL) for 2 h at 37° C. Degranulation then was induced by the addition of 0.1 μM fMLP (Sigma, USA) or 0.5 μM A23187 (Calbiochem, USA). The activity of free neutrophil elastase was determined with a chromogenic substrate specific for human neutrophil elastase, such as n-methoxysuccinyl-1-alanyl-1-alanyl-1-prolyl-lvalyl-p-niytoanlide (Sigma Chemical Company, St Louis, Mo., USA) Elastase activity, as a marker of primary granules, was assessed in supernatant using a spectrophotometer at an absorbance of 405 nm. Results are expressed as the percent of inhibition of degranulation in unstimulated cells, and in stimulated cells treated with fMLP or A23187.
# [2] = zymosan stimulated, compound 10 μM
# [3] = zymosan stimulated, compound 50 μM
compound,measurement,setting,value
CCC1OC(=O)C(C)C(OC2CC(C)(OC)C(O)C(C)O2)C(C)C(OC2OC(C)CC(N(C)C)C2O)C(C)(O)CC(C)CN(C(=S)Nc2ccc(Cl)cc2)C(C)C(O)C1(C)O (centres unmarked) [Compound 2],Percentage of inhibition of TNF-α production,"TNF-α; LPS stimulated, compound 10 μM",37%
same,Percentage of inhibition of TNF-α production,"TNF-α; LPS stimulated, compound 50 μM",100%
same,Percentage of inhibition of TNF-α production,"TNF-α; PMA stimulated, compound 10 μM",60%
same,Percentage of inhibition of TNF-α production,"TNF-α; PMA stimulated, compound 50 μM",99%
same,Percentage of inhibition of TNF-α production,TNF-α; [2],78%
same,Percentage of inhibition of TNF-α production,TNF-α; [3],98%
same,Percentage of inhibition of IL-1α production,"IL-1α; LPS stimulated, compound 10 μM",77%
same,Percentage of inhibition of IL-1α production,"IL-1α; LPS stimulated, compound 50 μM",98%
same,Percentage of inhibition of IL-1α production,"IL-1α; PMA stimulated, compound 10 μM",18%
same,Percentage of inhibition of IL-1α production,"IL-1α; PMA stimulated, compound 50 μM",97%
same,Percentage of inhibition of IL-1α production,IL-1α; [2],92%
same,Percentage of inhibition of IL-1α production,IL-1α; [3],98%
same,Percentage of inhibition of IL-8 production,"IL-8; LPS stimulated, compound 10 μM",79%
same,Percentage of inhibition of IL-8 production,"IL-8; LPS stimulated, compound 50 μM",88%
same,Percentage of inhibition of IL-8 production,"IL-8; PMA stimulated, compound 10 μM",27%
same,Percentage of inhibition of IL-8 production,"IL-8; PMA stimulated, compound 50 μM",58%
same,Percentage of inhibition of IL-8 production,IL-8; [2],61%
same,Percentage of inhibition of IL-8 production,IL-8; [3],51%
same,% inhibition of Oxidative burst PMA,"human granulocytes; PMA stimulated granulocytes, compound 12.5 μM",19%
same,% inhibition of Oxidative burst PMA,"human granulocytes; PMA stimulated granulocytes, compound 50 μM",82%
same,% inhibition of Oxidative burst Zymosan,"human granulocytes; Zymosan stimulated granulocytes, compound 12.5 μM",24%
same,% inhibition of Oxidative burst Zymosan,"human granulocytes; Zymosan stimulated granulocytes, compound 50 μM",98%
same,Percentage of inhibition of IL-6 production,"IL-6; LPS stimulated, compound 10 μM",75%
same,Percentage of inhibition of IL-6 production,"IL-6; LPS stimulated, compound 50 μM",100%
same,Percentage of inhibition of IL-6 production,"IL-6; PMA stimulated, compound 10 μM",49%
same,Percentage of inhibition of IL-6 production,"IL-6; PMA stimulated, compound 50 μM",100%
same,Percentage of inhibition of IL-6 production,IL-6; [2],90%
same,Percentage of inhibition of IL-6 production,IL-6; [3],100%
same,Percentage of inhibition of proliferation of stimulated PBMC,"[1]; PHA stimulated, compound 10 μM",6%
same,Percentage of inhibition of proliferation of stimulated PBMC,"[1]; PHA stimulated, compound 50 μM",97%
same,Percentage of inhibition of proliferation of stimulated PBMC,"[1]; PMA + ionomycin stimulated, compound 10 μM",35%
same,Percentage of inhibition of proliferation of stimulated PBMC,"[1]; PMA + ionomycin stimulated, compound 50 μM",99%
"CC[C@H]1OC(=O)[C@H](C)[C@@H](O[C@H]2C[C@@](C)(OC)[C@@H](O)[C@H](C)O2)[C@H](C)[C@@H](O[C@@H]2O[C@H](C)C[C@H](N(C)C)[C@H]2O)[C@](C)(O)C[C@@H](C)C(=O)[C@H](C)[C@@H](O)[C@]1(C)O [Erythromycin, erythromycin]",inhibition at 50 µM,granulocytes; A23187 0.5 μM stimulated,0%
same,inhibition at 50 µM,granulocytes; fMLP 0.1 μM stimulated,23%
same,inhibition at 12.5 µM,"human granulocytes; PMA stimulated granulocytes, compound 12.5 μM, read-out: % inhibition of Oxidative burst PMA",0%
same,inhibition at 50 µM,"human granulocytes; PMA stimulated granulocytes, compound 50 μM, read-out: % inhibition of Oxidative burst PMA",0%
same,inhibition at 12.5 µM,"human granulocytes; Zymosan stimulated granulocytes, compound 12.5 μM, read-out: % inhibition of Oxidative burst Zymosan",6%
same,inhibition at 50 µM,"human granulocytes; Zymosan stimulated granulocytes, compound 50 μM, read-out: % inhibition of Oxidative burst Zymosan",41%
